Earlier results, collected in patent publication US6471968B1, “Multifunctional nanodevice platform” (Regents of the University of Michigan, priority 2000, dated 2002).

Tested on: solid tumor models
Settings: solid tumor models for which cisplatin has no effect

N.N.[Cl][Pt][Cl] [cisplatin]
in vivo activity in solid tumor models: no effect
